The values that follow come from patent publication US9266883B2, “Ring-fused bicyclic pyridyl derivatives as FGFR4 inhibitors” (Novartis AG, priority 2013, dated 2016).

Read-outs that look alike come from different tables or passages of the source.

Assay [1] has as its target FGFR4 (GST-FGFR4(388-802)) (Homo sapiens (Human), UniProt P22455). Kind of assay: In-vitro biochemical kinase assay for FGFR4 (Caliper microfluidic mobility shift).
The target of the next assay is Tel-FGFR4 (Homo sapiens (Human), UniProt P22455). Kind of assay: In vitro cellular kinase assay for FGFR4 (BaF3-Tel-FGFR4 cells, MSD capture ELISA of tyrosine phosphorylation). It is filed as cell-based. A general note: In an ELISA, binding on a coated surface is turned into a signal by an enzyme label.
The mark [2] stands for this setting: biochemical FGFR4 assay, read-out: Biochemical IC50.
Where [3] appears, read: Cellular BaF3 FGFR4 assay, read-out: Cellular IC50.
Setting [4] is: read-out: Biochemical FGFR4 IC50.
The mark [5] stands for this setting: BaF3-Tel-FGFR4 cells, 1 hour incubation, read-out: Cellular BaF3 FGFR4 IC50.

Chain of FGFR4 (GST-FGFR4(388-802)) (P22455 388-802): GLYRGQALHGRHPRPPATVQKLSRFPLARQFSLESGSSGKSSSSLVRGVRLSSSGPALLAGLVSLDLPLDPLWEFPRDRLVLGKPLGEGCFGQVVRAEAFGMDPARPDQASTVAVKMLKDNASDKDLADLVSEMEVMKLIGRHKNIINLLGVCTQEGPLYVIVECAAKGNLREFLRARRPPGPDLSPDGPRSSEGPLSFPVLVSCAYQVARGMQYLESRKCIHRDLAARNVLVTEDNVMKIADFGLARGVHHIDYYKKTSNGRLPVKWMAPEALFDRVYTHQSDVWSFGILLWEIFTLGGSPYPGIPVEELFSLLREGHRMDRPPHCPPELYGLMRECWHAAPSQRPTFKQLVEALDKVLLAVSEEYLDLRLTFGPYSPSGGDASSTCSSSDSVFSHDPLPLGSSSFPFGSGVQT
Chain of Tel-FGFR4 (P22455 other isoform, or with tags, fused parts or gaps): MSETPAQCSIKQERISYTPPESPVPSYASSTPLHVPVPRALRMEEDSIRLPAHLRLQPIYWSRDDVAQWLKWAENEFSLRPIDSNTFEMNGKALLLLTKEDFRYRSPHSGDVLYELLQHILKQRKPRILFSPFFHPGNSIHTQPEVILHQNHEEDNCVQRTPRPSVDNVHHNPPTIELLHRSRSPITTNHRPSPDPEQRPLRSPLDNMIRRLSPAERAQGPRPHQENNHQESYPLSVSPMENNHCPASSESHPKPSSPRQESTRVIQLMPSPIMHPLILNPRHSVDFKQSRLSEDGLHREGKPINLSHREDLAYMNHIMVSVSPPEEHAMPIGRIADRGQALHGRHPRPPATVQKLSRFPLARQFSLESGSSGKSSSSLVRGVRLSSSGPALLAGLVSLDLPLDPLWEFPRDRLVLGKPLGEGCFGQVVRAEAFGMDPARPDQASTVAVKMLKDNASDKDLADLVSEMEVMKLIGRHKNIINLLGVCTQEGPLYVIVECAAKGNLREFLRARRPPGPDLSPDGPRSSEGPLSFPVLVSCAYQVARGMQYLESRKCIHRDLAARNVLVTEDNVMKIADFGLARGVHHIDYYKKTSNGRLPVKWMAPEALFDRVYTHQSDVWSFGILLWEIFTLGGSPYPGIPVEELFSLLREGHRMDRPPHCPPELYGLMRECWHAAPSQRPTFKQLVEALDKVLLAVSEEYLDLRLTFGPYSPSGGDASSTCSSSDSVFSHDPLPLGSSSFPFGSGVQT

The IC50 is the concentration needed to halve the response being measured. On to `CCOc1cc(NC(=O)N2CCCc3cc(CN4CCN(C)CC4=O)c(C=O)nc32)ncc1C#N` [N-(5-cyano-4-ethoxypyridin-2-yl)-7-formyl-6-((4-methyl-2-oxopiperazin-1-yl)methyl)-3,4-dihydro-1,8-naphthyridine-1(2H)-carboxamide], for which the IC50 turned out to be 1.3 nM in assay [1] (setting [2]) and 6.9 nM on Tel-FGFR4 (setting [3]).

With `COCCNc1cc(NC(=O)N2CCCc3cc(-c4sc(C)nc4C)c(C=O)nc32)ncc1C#N` [N-(5-cyano-4-((2-methoxyethyl)amino)pyridin-2-yl)-6-(2,4-dimethylthiazol-5-yl)-7-formyl-3,4-dihydro-1,8-naphthyridine-1(2H)-carboxamide], the figures for the half-maximal inhibitory concentration (IC50) (in assay [1] (setting [2]); at Tel-FGFR4 (setting [3])) were 9.5 nM and 21 nM, respectively.

As for `CC(C)Oc1cc(NC(=O)N2CCCc3cc(C(F)F)c(C=O)nc32)ncc1C#N` [N-(5-cyano-4-isopropoxypyridin-2-yl)-6-(difluoromethyl)-7-formyl-3,4-dihydro-1,8-naphthyridine-1(2H)-carboxamide], the concentration for half-maximal inhibition (IC50) in assay [1] (setting [2]) came out at 1.2 nM; at Tel-FGFR4 (setting [3]), 21 nM.

For `CN1CCN(Cc2cc3c(nc2C=O)N(C(=O)Nc2cc(NCC(C)(C)O)c(C#N)cn2)CCC3)C(=O)C1` [N-(5-cyano-4-((2-hydroxy-2-methylpropyl)amino)pyridin-2-yl)-7-formyl-6-((4-methyl-2-oxopiperazin-1-yl)methyl)-3,4-dihydro-1,8-naphthyridine-1(2H)-carboxamide], the values for the half-inhibitory concentration (IC50) (in assay [1] (setting [2]); at Tel-FGFR4 (setting [3])) were 0.9 nM and 4.8 nM, respectively.

Regarding `CC(C)Oc1cc(NC(=O)N2CCCc3cc(CO)c(C=O)nc32)ncc1C#N` [N-(5-cyano-4-isopropoxypyridin-2-yl)-7-formyl-6-(hydroxymethyl)-3,4-dihydro-1,8-naphthyridine-1(2H)-carboxamide], the figures for the 50% inhibitory concentration (IC50) (in assay [1] (setting [2]); at Tel-FGFR4 (setting [3])) were 2.8 nM and 9.1 nM, respectively.

As for `COCCNc1cc(NC(=O)N2CCCc3cc(CN4CCCC4=O)c(C=O)nc32)ncc1C#N` [N-(5-cyano-4-((2-methoxyethyl)amino)pyridin-2-yl)-7-formyl-6-((2-oxopyrrolidin-1-yl)methyl)-3,4-dihydro-1,8-naphthyridine-1(2H)-carboxamide], the 50% inhibitory concentration (IC50) in assay [1] (setting [2]) amounted to 1.1 nM; on Tel-FGFR4 (setting [3]), 3.6 nM.

`N#Cc1cnc(NC(=O)N2CCCc3cc(CO)c(C=O)nc32)cc1OCC(O)CCCl` (racemic) [Example 60, N-(4-(4-chloro-2-hydroxybutoxy)-5-cyanopyridin-2-yl)-7-formyl-6-(hydroxymethyl)-3,4-dihydro-1,8-naphthyridine-1(2H)-carboxamide]: the IC50 came out at 0.8 nM in assay [1] (setting [4]) and 26 nM at Tel-FGFR4 (setting [5]).

`COCCNc1cc(NC(=O)N2CCCc3cc(CN4CCC(N(C)C)C4)c(C=O)nc32)ncc1C#N` (stereo not shown) [N-(5-cyano-4-((2-methoxyethyl)amino)pyridin-2-yl)-6-((3-(dimethylamino)pyrrolidin-1-yl)methyl)-7-formyl-3,4-dihydro-1,8-naphthyridine-1(2H)-carboxamide]: the half-maximal inhibitory concentration (IC50) in assay [1] (setting [2]) was determined as 0.5 nM; on Tel-FGFR4 (setting [3]), 63 nM.

With `COCCNc1cc(NC(=O)N2CCCc3cc(-c4cn(C)nc4C)c(C=O)nc32)ncc1C#N` [Example 250, N-(5-cyano-4-((2-methoxyethyl)amino)pyridin-2-yl)-6-(1,3-dimethyl-1H-pyrazol-4-yl)-7-formyl-3,4-dihydro-1,8-naphthyridine-1(2H)-carboxamide], the IC50 turned out to be 6.7 nM in assay [1] (setting [4]) and 14.5 nM at Tel-FGFR4 (setting [5]).

For the compound `CC(C)Oc1cc(NC(=O)N2CCCc3cc(CN4C[C@H](N(C)C)CC4=O)c(C=O)nc32)ncc1C#N` [(R)-N-(5-cyano-4-isopropoxypyridin-2-yl)-6-((4-(dimethylamino)-2-oxopyrrolidin-1-yl)methyl)-7-formyl-3,4-dihydro-1,8-naphthyridine-1(2H)-carboxamide], the IC50 in assay [1] (setting [2]) was determined as 0.3 nM; at Tel-FGFR4 (setting [3]), 6.7 nM.

Take `CC(C)Oc1cc(NC(=O)N2c3nc(C=O)c(Br)cc3CC[C@@H]2C)ncc1C#N` [(S)-6-bromo-N-(5-cyano-4-isopropoxypyridin-2-yl)-7-formyl-2-methyl-3,4-dihydro-1,8-naphthyridine-1(2H)-carboxamide]: the IC50 in assay [1] (setting [2]) was found to be 3.3 nM; at Tel-FGFR4 (setting [3]) it was 95.5 nM.

As for `CN1CCN(Cc2cc3c(nc2C=O)N(C(=O)Nc2cc(NC(C)(C)C)c(C#N)cn2)CCC3)C(=O)C1` [N-(4-(tert-butylamino)-5-cyanopyridin-2-yl)-7-formyl-6-((4-methyl-2-oxopiperazin-1-yl)methyl)-3,4-dihydro-1,8-naphthyridine-1(2H)-carboxamide], the half-inhibitory concentration (IC50) in assay [1] (setting [2]) was determined as 1.8 nM; at Tel-FGFR4 (setting [3]), 11.5 nM.

Regarding `COCCNc1cc(NC(=O)N2CCCc3cc(CN4CCNC(C)(C)C4=O)c(C=O)nc32)ncc1C#N` [N-(5-cyano-4-((2-methoxyethyl)amino)pyridin-2-yl)-6-((3,3-dimethyl-2-oxopiperazin-1-yl)methyl)-7-formyl-3,4-dihydro-1,8-naphthyridine-1(2H)-carboxamide], the IC50 worked out at 0.1 nM in assay [1] (setting [2]) and 5.9 nM at Tel-FGFR4 (setting [3]).

With `COC[C@@H](C)Nc1cc(NC(=O)N2CCCc3cc(C(F)F)c(C=O)nc32)ncc1C#N` [(R)-N-(5-cyano-4-((1-methoxypropan-2-yl)amino)pyridin-2-yl)-6-(difluoromethyl)-7-formyl-3,4-dihydro-1,8-naphthyridine-1(2H)-carboxamide], the values for the IC50 (in assay [1] (setting [2]); at Tel-FGFR4 (setting [3])) were 1.2 nM and 19 nM, respectively.

`N#Cc1cnc(NC(=O)N2CCCc3cc(CO)c(C=O)nc32)cc1OCC1CCCO1` (racemic) [Example 43, N-(5-cyano-4-((tetrahydrofuran-2-yl)methoxy)pyridin-2-yl)-7-formyl-6-(hydroxymethyl)-3,4-dihydro-1,8-naphthyridine-1(2H)-carboxamide]: the IC50 in assay [1] (setting [4]) was 5.2 nM; on Tel-FGFR4 (setting [5]) it was 7.5 nM.

Turning to `COC[C@H](C)Nc1cc(NC(=O)N2CCCc3cc(CN4CCCC4=O)c(C=O)nc32)ncc1C#N` [(S)-N-(5-cyano-4-((1-methoxypropan-2-yl)amino)pyridin-2-yl)-7-formyl-6-((2-oxopyrrolidin-1-yl)methyl)-3,4-dihydro-1,8-naphthyridine-1(2H)-carboxamide], the IC50 was found to be 1.9 nM in assay [1] (setting [2]) and 4.9 nM on Tel-FGFR4 (setting [3]).

With `CC(C)Oc1cc(NC(=O)N2CCCc3cc(CN4CCNC(=O)C4)c(C=O)nc32)ncc1C#N` [N-(5-cyano-4-isopropoxypyridin-2-yl)-7-formyl-6-((3-oxopiperazin-1-yl)methyl)-3,4-dihydro-1,8-naphthyridine-1(2H)-carboxamide], the IC50 in assay [1] (setting [2]) stood at 1.6 nM; on Tel-FGFR4 (setting [3]), 23.5 nM.

`N#Cc1cnc(NC(=O)N2CCCc3cc(C(F)F)c(C=O)nc32)cc1Cl` [N-(4-chloro-5-cyanopyridin-2-yl)-6-(difluoromethyl)-7-formyl-3,4-dihydro-1,8-naphthyridine-1(2H)-carboxamide]: the IC50 in assay [1] (setting [2]) was 57 nM; at Tel-FGFR4 (setting [3]) it was 223 nM.

In the case of `O=Cc1nc2c(cc1CO)CCCN2C(=O)Nc1cc(O[C@H]2CCOC2)c(Cl)cn1` [Example 72, (S)-N-(5-chloro-4-((tetrahydrofuran-3-yl)oxy)pyridin-2-yl)-7-formyl-6-(hydroxymethyl)-3,4-dihydro-1,8-naphthyridine-1(2H)-carboxamide], the results for the 50% inhibitory concentration (IC50) (in assay [1] (setting [4]); at Tel-FGFR4 (setting [5])) were 21 nM and 57.5 nM, respectively.

As for `CCN(Cc1cc2c(nc1C=O)N(C(=O)Nc1cc(NC(C)C)c(C#N)cn1)CCC2)C(=O)CN(C)C` [N-(5-cyano-4-(isopropylamino)pyridin-2-yl)-6-((2-(dimethylamino)-N-ethylacetamido)methyl)-7-formyl-3,4-dihydro-1,8-naphthyridine-1(2H)-carboxamide], the IC50 was determined as 0.8 nM in assay [1] (setting [2]) and 10.4 nM at Tel-FGFR4 (setting [3]).

As for `CCc1cc(NC(=O)N2CCCc3cc(CN4CCN(C)CC4=O)c(C=O)nc32)ncc1C#N` [N-(5-cyano-4-ethylpyridin-2-yl)-7-formyl-6-((4-methyl-2-oxopiperazin-1-yl)methyl)-3,4-dihydro-1,8-naphthyridine-1(2H)-carboxamide], the results for the IC50 (in assay [1] (setting [2]); at Tel-FGFR4 (setting [3])) were 8.9 nM and 22.5 nM, respectively.

For the compound `CC(=O)N(C)Cc1cc2c(nc1C=O)N(C(=O)Nc1cc(OCC(C)C)c(C#N)cn1)CCC2` [N-(5-cyano-4-isobutoxypyridin-2-yl)-7-formyl-6-((N-methylacetamido)methyl)-3,4-dihydro-1,8-naphthyridine-1(2H)-carboxamide], the 50% inhibitory concentration (IC50) in assay [1] (setting [2]) was determined as 1.3 nM; at Tel-FGFR4 (setting [3]), 6 nM.

As to `CC(=O)N(C)Cc1cc2c(nc1C=O)N(C(=O)Nc1cc(NCCO)c(C#N)cn1)CCC2` [N-(5-cyano-4-((2-hydroxyethyl)amino)pyridin-2-yl)-7-formyl-6-((N-methylacetamido)methyl)-3,4-dihydro-1,8-naphthyridine-1(2H)-carboxamide], the IC50 in assay [1] (setting [2]) was found to be 0.5 nM; on Tel-FGFR4 (setting [3]) it was 8.1 nM.

For `CC(C)Oc1cc(NC(=O)N2CCCc3cc(CN4CCOC4=O)c(C=O)nc32)ncc1C#N` [N-(5-cyano-4-isopropoxypyridin-2-yl)-7-formyl-6-((2-oxooxazolidin-3-yl)methyl)-3,4-dihydro-1,8-naphthyridine-1(2H)-carboxamide], the half-inhibitory concentration (IC50) in assay [1] (setting [2]) was found to be 1.3 nM; on Tel-FGFR4 (setting [3]) it was 5.6 nM.

As for `COC[C@H](C)Nc1cc(NC(=O)N2CCCc3cc(CN(C)C(C)=O)c(C=O)nc32)ncc1C#N` [(S)-N-(5-cyano-4-((1-methoxypropan-2-yl)amino)pyridin-2-yl)-7-formyl-6-((N-methylacetamido)methyl)-3,4-dihydro-1,8-naphthyridine-1(2H)-carboxamide], the values for the IC50 (in assay [1] (setting [2]); at Tel-FGFR4 (setting [3])) were 1 nM and 4.2 nM, respectively.

Consider `N#Cc1cnc(NC(=O)N2CCCc3cc(C(F)F)c(C=O)nc32)cc1NCCO` [N-(5-cyano-4-((2-hydroxyethyl)amino)pyridin-2-yl)-6-(difluoromethyl)-7-formyl-3,4-dihydro-1,8-naphthyridine-1(2H)-carboxamide], for which the values for the 50% inhibitory concentration (IC50) (in assay [1] (setting [2]); at Tel-FGFR4 (setting [3])) were 1 nM and 5.5 nM, respectively.
